Experimental data taken from patent publication US20220096664A1, “STABILIZED FORMULATIONS CONTAINING IODINATED CONTRAST AGENTS AND CYCLODEXTRINS” (Verrow Pharmaceuticals, Inc., priority 2012, published 2022).
Read-outs that look alike come from different tables or passages of the source.

How the values were obtained:
[1] = assay type: physicochemical
Experimental: (§1) The lamps were switched on and the solutions irradiated for 18 to 24 hours for the ultraviolet (UV) lamps or 72 to 90 hours for the visible (VIS) light lamps. At the end of the selected irradiation time, the cuvettes were removed from the photolysis chamber and mixed by inversion 2-times. The caps were then removed and 40 microliter aliquots taken and diluted with 1 mL of an aqueous solution containing ˜0.9 mg/mL sodium thiosulfate. The thiosulfate solution converted any I2, IO3^−, and I3^− present in the solution tor such that total iodine species could be determined in one assay.
(§2) The diluted solutions were assayed by high pressure liquid chromatography (HPLC) using a 4.6×250 mm, C-18, 5 micron particle size, reversed phase column with detection at 280 nm for the contrast agent and 230 nm for the thiosulfate and the iodide ion (r). A mobile phase of 30:70 methanol:aqueous buffer (50 mM KH2PO4+7 mL/L 40% tetrabutyl ammonium hydroxide) at 0.75 mL/min was used for elution. Injection volume was 20 microliters. External standards were prepared containing each contrast agent, potassium iodide, and sodium thiosulfate solution and analyzed along with the irradiated samples. The results were reported as weight percentage iodide formed (mg iodide/mg contrast agent times 100).
Aqueous solutions were prepared containing 50 mM iodinated contrast agent, 10 mM tromethamine HCl buffer (TRIS), with and without sulfobutylether beta-cyclodextrin with an average degree of substitution-7 (SBE7-β-CD), or 2-hydroxypropyl beta-cyclodextrin with an average degree of substitution of ˜6.3 (HP6.3-β-CD) or ˜4.3 (HP4.3-β-CD). The iohexol solution was prepared by dissolving solid iohexol powder while the other solutions were prepared by diluting commercial formulated products and adding sufficient TRIS buffer to reach 10 mM. The pH of the solutions was adjusted to 7.4 with 0.1N hydrochloric acid.
Aliquots of the solutions were irradiated with visible light for 72 hours (0.52 million lux hours). Other aliquots were autoclaved for 20 minutes at 121° C., cooled to room temperature and then irradiated with ultraviolet light for 18 hours (119 watt hours/m2). The solutions were then processed, analyzed and reported as in Example 2, except that the chromatographic peaks of the contrast agents were evaluated at 300 nm for both samples and standards. […]
Aqueous formulations were prepared containing iodinated contrast agents at concentrations used commercially in medical procedures. Sulfobutylether-cyclodextrin, sodium salt, average degree of substitution ˜7 (SBE7CD) was added at varying agent:CD mole ratios. The formulations were placed in glass vials, sealed with rubber stoppers and aluminum crimps, and autoclaved at 121° C. for 20 minutes. Aliquots of the autoclaved solutions were exposed to UV light for 24 hours (159 watt hours/m^2 or VIS light for 72 hours (0.52 million lux hours) as in Example 2. The solutions were then processed, analyzed and reported as in Example 2, with the following two exceptions; 1) the chromatographic peaks of the contrast agents were evaluated at 300 nm for both samples and standards, and 2) only 20 microliter sample aliquots were taken and diluted for HPLC analysis due to the higher concentrations used in this study. Results of the study are presented in the table below along with the solution compositions.

[2] = Photostability: iodide formed after visible light irradiation; assay type: physicochemical; details: for Iodide formed: 50 mM agent, 10 mM TRIS, pH 7.4, VIS 72 h
Experimental: Aqueous solutions comprising iodinated contrast agents were prepared and evaluated in a photolysis chamber as described in the ICH guidance document, Q1B Photostability Testing of New Drug Substances and Products, available from the US Food and Drug Administration, incorporated herein by reference. The solutions were placed in 1 cm×1 cm (3 mL) quartz cuvettes having 2 clear sides and 2 sides etched. Lids were placed on the cuvettes and sealed with a wrap of Parafilm® around the joint. The cuvettes were placed in a photolysis chamber, upright on a flat surface beneath and centered between two horizontal 24 inch fluorescent lamps, (GE, black light F20T12, 20 watt for ultraviolet, or Philips F20T12/CW, 20 watt for visible) placed 6 cm apart. The cuvettes were positioned such that their two clear sides were facing the two lamps.
Cuvettes were spaced ˜2 cm from each other, and no closer than 15 cm from the ends of the lamps. This positioning allowed reproducible light exposure to all cuvettes.
as §1, §2
The absorbance readings at 400 nm due to light exposure were plotted against time of exposure and the resulting correlation used to determine the UV and VIS light exposure. A change in absorbance reading of 0.45 was assumed equivalent to 200 watt hours/square meter for the UV light and a change of 0.51 was assumed equivalent to 1.2 million lux hours for the VIS light. The UV lamps provided 6.62 watts/square meter and the VIS lamps provided 7180 lux.
Aqueous solutions were prepared containing 473 mM iohexol (180 mg 1/mL), 10 mM tromethamine HCl buffer (TRIS), with and without various SCDs. The pH of the solutions was adjusted to 7.4 with 0.1N hydrochloric acid. Aliquots of the solutions were irradiated with ultraviolet (UV) light for 18 hours (119 watt hours/m^2) and other aliquots irradiated with visible (VIS) light for 90 hours (0.65 million lux hours). The solutions were then processed, analyzed and reported as in Example 2, with the exception that the iohexol peak was measured at 300 nm for both samples and standards. Results of the study are presented in the table below along with the SCD used. The SCDs included derivatives prepared from alpha, beta, and gamma CD to evaluate the effect of CD cavity size. Various substituents, including one derivative containing more than one type of substituent, and degrees of substitution (DS) were also evaluated.
Aqueous solutions were prepared containing 50 mM iodinated contrast agent, 10 mM tromethamine HCl buffer (TRIS), with and without sulfobutylether beta-cyclodextrin with an average degree of substitution-7 (SBE7-β-CD), or 2-hydroxypropyl beta-cyclodextrin with an average degree of substitution of ˜6.3 (HP6.3-β-CD) or ˜4.3 (HP4.3-β-CD). […]

In the case of `CC(=O)N(CC(O)CN(C(C)=O)c1c(I)c(C(=O)NCC(O)CO)c(I)c(C(=O)NCC(O)CO)c1I)c1c(I)c(C(=O)NCC(O)CO)c(I)c(C(=O)NCC(O)CO)c1I` (stereo not drawn) [Iodixanol, iodixanol], the “Iodide Formed, Autoclaved” value ([1]; Iodixanol 270 mg I/mL, pH 7.4, agent:SBE7CD 1:0.05) is reported as 0.0161 wt %, the “Iodide Formed, Autoclaved” value ([1]; Iodixanol 270 mg I/mL, pH 7.4, no SCD (1:0)) is reported as 0.0167 wt % and the “Iodide Formed, Autoclaved” value ([1]; Iodixanol 320 mg I/mL, pH 7.4, agent:SBE7CD 1:0.05) is reported as 0.0135 wt %. For the same compound, the “Iodide Formed, Autoclaved” value ([1]; Iodixanol 320 mg I/mL, pH 7.4, no SCD (1:0)) was 0.0132 wt %, the Iodide formed ([2]; agent:SBE7-β-CD 1:0.1) was 0.142 wt % and the Iodide formed ([2]; no SCD (1:0)) was 0.153 wt %.

For `COCC(=O)Nc1c(I)c(C(=O)NCC(O)CO)c(I)c(C(=O)N(C)CC(O)CO)c1I` (stereo not drawn) [Iopromide, iopromide], the “Iodide Formed, Autoclaved” value ([1]; Iopromide 150 mg I/mL, pH 7.4, agent:SBE7CD 1:0.05) was 0.00289 wt %, the “Iodide Formed, Autoclaved” value ([1]; Iopromide 150 mg I/mL, pH 7.4, no SCD (1:0)) was 0.00383 wt % and the “Iodide Formed, Autoclaved” value ([1]; Iopromide 240 mg I/mL, pH 7.4, agent:SBE7CD 1:0.05) was 0.00217 wt %. The “Iodide Formed, Autoclaved” value ([1]; Iopromide 240 mg I/mL, pH 7.4, no SCD (1:0)) was 0.00204 wt %, the “Iodide Formed, Autoclaved” value ([1]; Iopromide 300 mg I/mL, pH 7.4, agent:SBE7CD 1:0.05) was 0.00118 wt % and the “Iodide Formed, Autoclaved” value ([1]; Iopromide 300 mg I/mL, pH 7.4, no SCD (1:0)) was 0.00145 wt %. For the same compound, the “Iodide Formed, Autoclaved” value ([1]; Iopromide 370 mg I/mL, pH 7.4, agent:SBE7CD 1:0.05) was 0.00072 wt %, the “Iodide Formed, Autoclaved” value ([1]; Iopromide 370 mg I/mL, pH 7.4, no SCD (1:0)) was 0.00111 wt % and the Iodide formed ([2]; agent:SBE7-β-CD 1:0.1) was 0.269 wt %. The Iodide formed ([2]; no SCD (1:0)) was 0.311 wt %.

For `O=C(NCC(O)CO)c1c(I)c(C(=O)NCC(O)CO)c(I)c(N(CCO)C(=O)CO)c1I` (stereo not drawn) [Ioversol, ioversol], the “percent change in iodide degradants formed in the presence of the SCD” value ([1]; 20 min, 50 mM, pH 7.4) was “(−30.8%)”, the “Iodide Formed, Autoclaved” value ([1]; Ioversol 160 mg I/mL, pH 7.1, agent:SBE7CD 1:0.05) was 0.0241 wt % and the “Iodide Formed, Autoclaved” value ([1]; Ioversol 160 mg I/mL, pH 7.1, no SCD (1:0)) was 0.0244 wt %. The “Iodide Formed, Autoclaved” value ([1]; Ioversol 240 mg I/mL, pH 7.1, agent:SBE7CD 1:0.05) was 0.0162 wt %, the “Iodide Formed, Autoclaved” value ([1]; Ioversol 240 mg I/mL, pH 7.1, no SCD (1:0)) was 0.0160 wt % and the “Iodide Formed, Autoclaved” value ([1]; Ioversol 300 mg I/mL, pH 7.1, agent:SBE7CD 1:0.05) was 0.0129 wt %. The “Iodide Formed, Autoclaved” value ([1]; Ioversol 300 mg I/mL, pH 7.1, no SCD (1:0)) was 0.0135 wt %, the “Iodide Formed, Autoclaved” value ([1]; Ioversol 320 mg I/mL, pH 7.1, agent:SBE7CD 1:0.05) was 0.0127 wt % and the “Iodide Formed, Autoclaved” value ([1]; Ioversol 320 mg I/mL, pH 7.1, no SCD (1:0)) was 0.0130 wt %. For the same compound, the “Iodide Formed, Autoclaved” value ([1]; Ioversol 350 mg I/mL, pH 7.1, agent:SBE7CD 1:0.05) was 0.0120 wt %, the “Iodide Formed, Autoclaved” value ([1]; Ioversol 350 mg I/mL, pH 7.1, no SCD (1:0)) was 0.0124 wt % and the Iodide formed ([2]; agent:SBE7-β-CD 1:0.1) was 0.301 wt %. The Iodide formed ([2]; no SCD (1:0)) was 0.304 wt % and the “percent change in iodide degradants formed in the presence of the SCD” value ([2]; 72 h, 50 mM, pH 7.4) was “(−1%)”.
